Values quoted from earlier work as cited in patent US12220439B2, “Methods of diagnosing and treating dry eye syndrome and compositions for treating a human eye” (Akrivista LLC, priority 2017, dated 2025).

Key:
Pseudomonas aeruginosa = conditions: strains of Pseudomonas aeruginosa
corneal cells = conditions: concentrations from about 0.004% to about 0.02% (w/v)
HLA-DR = conditions: dry eye disease biomarker

## benzalkonium chloride [BAK]
Pseudomonas aeruginosa
  effectiveness against potential contaminants: not effective
Corneal cells
  effect on corneal epithelium: can lead to corneal epithelial separation

## C[C@@H]1CCN(C(=O)CC#N)C[C@@H]1N(C)c1ncnc2[nH]ccc12 [tofacitinib]
HLA-DR
  HLA-DR presence on treatment: Presence decreased with CsA
